From patent US20140287460A1, “PRODUCTION OF R[…] IN INSECT CELLS USING A B[…]” (GBIOTECH SARL, priority 2011, published 2014)

Assays:
[1] = test system: bMON14272-pE2 infected SF21 cells; test: Baculovirus virion suppression test, end point dilution assay (Example 2); type: cell-based
Text: FIG. 7: Example 2. A) Generation of composite baculovirus DNA containing expression cassettes X, Y, and Z as described in FIG. 6. Baculovirus DNA bMON14272 (left) contains expression cassette Z encoding native vp80 protein. The transfer vector pE2 (right) contains expression cassettes X and Y encoding the ecdysone activator protein and shRNA, respectively. In transfer vector pE2, direction of transcription 5′ to 3′ for expression cassettes X and Y is indicated by arrows. Promoter sequences pe38 for ecdysone activator and ie-2 minimal for shRNA are indicated as are the DNA binding sites for ecdysone activator protein. Fusion of the transfer vector pE2 and bMON14272 is carried out by Tn7 transposition (indicated by the dashed cross). B) Comparison of budded infectious virus production from inducible bMON14272-pE2 (left) and non-inducible bMON14272-pDual (right) in the presence and absence of inducer molecule RG-102240. Baculovirus infected SF21 cells are incubated for 72 hours in the presence, or absence of 0.5 μM RG-102240 (indicated by + or −, bottom). […] S.E.M of three measurements is indicated by dark bars on the top of the graphs.
Other algorithms may be analogously used. […] Expression cassette Y is under control of the ie2 minimal promoter (Protein Expression and Purification 42, 236-245).
Baculovirus virion suppression tests are carried out as follows. 10 milliliters of SF21 cells in suspension culture (Nature Methods 3, 1021-1032) at density 0.5×10^6 cells/ml are infected at multiplicity of infection (M.O.I) of 1.0 with either bMON14272-pE2 or bMON14272-pFastbac Dual initial transfection virus either in the presence, or absence of 0.5 μM RG-102240 (FIG. 7B). […]
(§1) Quantification of effectiveness of RG-102240-mediated suppression of generation of baculovirus virion through shRNA targeting of the essential virus capsid protein vp80 as described above is carried out by comparing the results of the end point dilution assay with and without RG-102240-mediated expression of shRNA. […]

[2] = test system: bMON14272-pFastbac Dual infected SF21 cells; test: Baculovirus virion suppression test, end point dilution assay, negative control virus (Example 2); type: cell-based; settings: addition of 0.5 μM RG-102240, SF21 cells, 72 hours, FIG. 7B right
Text: FIG. 7: Example 2. A) Generation of composite baculovirus DNA containing expression cassettes X, Y, and Z as described in FIG. 6. Baculovirus DNA bMON14272 (left) contains expression cassette Z encoding native vp80 protein. The transfer vector pE2 (right) contains expression cassettes X and Y encoding the ecdysone activator protein and shRNA, respectively. In transfer vector pE2, direction of transcription 5′ to 3′ for expression cassettes X and Y is indicated by arrows. Promoter sequences pe38 for ecdysone activator and ie-2 minimal for shRNA are indicated as are the DNA binding sites for ecdysone activator protein. Fusion of the transfer vector pE2 and bMON14272 is carried out by Tn7 transposition (indicated by the dashed cross). B) Comparison of budded infectious virus production from inducible bMON14272-pE2 (left) and non-inducible bMON14272-pDual (right) in the presence and absence of inducer molecule RG-102240. Baculovirus infected SF21 cells are incubated for 72 hours in the presence, or absence of 0.5 μM RG-102240 (indicated by + or −, bottom). […]
as §1

[3] = induced with 0.5 μM RG-102240, SF21 cells, 72 hours

SMILES: CCc1c(OC)cccc1C(=O)NN(C(=O)c1cc(C)cc(C)c1)C(C)(C)C [RG-102240]
- reduction of virus titers relative to prior art systems (bMON14272-pFastbac Dual) [1, 3]: more than three fold
- reduction of virus titers relative to uninduced bMON14272-pE2 [1, 3]: more than three fold
- levels of budded virus production (infectious virus titre) ([1]; presence vs absence of 0.5 μM RG-102240, SF21 cells, M.O.I 1.0, 72 hours, FIG. 7B left): significantly reduced
- effect on baculovirus virion production [2]: no statistically significant effect
